Results: PubChem BioAssay AID180 (DTP/NCI, 2004)
Where “and” joins values, the source holds several entries; their conditions need not be identical. Equal values may be shown once.

Tested on: BDF1 mice, Adenocarcinoma 755 s.c., tumor weight T/C
Assay: NCI In Vivo Anticancer Drug Screen. Data for tumor model Adenocarcinoma 755 (subcutaneous) in B6D2F1 (BDF1) mice
Details: endpoint: mean tumor weight, higher = larger tumour
In short: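 Values express treated (T) relative to vehicle-dosed control (C) animals, based on survival or tumour size measured after compound treatment of mice bearing a transplanted tumour.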

SMILES: Nc1nc(=S)c2[nH]cnc2[nH]1
- T/C (dose: 0.01 mg/kg/injection, schedule: Q01DX011 (ip), vehicle: saline): 113 % of control
- T/C (dose: 0.03 mg/kg/injection, schedule: Q01DX011 (ip), vehicle: saline): 81 % of control
- T/C (dose: 0.06 mg/kg/injection, schedule: Q01DX011 (ip), vehicle: saline): 88 % of control
- T/C (dose: 0.07 mg/kg/injection, schedule: Q01DX011 (ip), vehicle: alkali diluted with saline): 74 % of control
- T/C (dose: 0.07 mg/kg/injection, schedule: Q01DX011 (ip), vehicle: methylcellulose (MC)): 28 % of control
- T/C (dose: 0.12 mg/kg/injection, schedule: Q01DX011 (ip), vehicle: carboxymethylcellulose (CMC)): 112 % of control
- T/C (dose: 0.12 mg/kg/injection, schedule: Q01DX011 (ip), vehicle: saline): 66 % of control
- T/C (dose: 0.13 mg/kg/injection, schedule: Q01DX011 (ip), vehicle: alkali diluted with saline): 95 % of control
- T/C (dose: 0.13 mg/kg/injection, schedule: Q01DX011 (ip), vehicle: other): 91 % of control
- T/C (dose: 0.13 mg/kg/injection, schedule: Q01DX011 (ip), vehicle: saline): 7 % of control
- T/C (dose: 0.18 mg/kg/injection, schedule: Q01DX011 (ip), vehicle: carboxymethylcellulose (CMC)): 32 % of control
- T/C (dose: 0.2 mg/kg/injection, schedule: Q01DX011 (ip), vehicle: methylcellulose (MC)): 39 % of control
- T/C (dose: 0.24 mg/kg/injection, schedule: Q01DX011 (ip), vehicle: carboxymethylcellulose (CMC)): 77 % of control
- T/C (dose: 0.25 mg/kg/injection, schedule: Q01DX011 (ip), vehicle: alkali diluted with saline): 53 % of control
- T/C (dose: 0.25 mg/kg/injection, schedule: Q01DX011 (ip), vehicle: distilled water + alcohol): 7 % of control
- T/C (dose: 0.25 mg/kg/injection, schedule: Q01DX011 (ip), vehicle: methylcellulose (MC)): 4 % of control and 11 % of control and 15 % of control
- T/C (dose: 0.25 mg/kg/injection, schedule: Q01DX011 (ip), vehicle: other): 32 % of control
- T/C (dose: 0.35 mg/kg/injection, schedule: Q01DX011 (ip), vehicle: carboxymethylcellulose (CMC)): 9 % of control
- T/C (dose: 0.4 mg/kg/injection, schedule: Q01DX011 (ip), vehicle: methylcellulose (MC)): 12 % of control
- T/C (dose: 0.47 mg/kg/injection, schedule: Q01DX011 (ip), vehicle: carboxymethylcellulose (CMC)): 34 % of control
- T/C (dose: 0.5 mg/kg/injection, schedule: Q01DX011 (ip), vehicle: alkali diluted with saline): 4 % of control
- T/C (dose: 0.5 mg/kg/injection, schedule: Q01DX011 (ip), vehicle: distilled water + alcohol): 7 % of control
- T/C (dose: 0.5 mg/kg/injection, schedule: Q01DX011 (ip), vehicle: other): 8 % of control
- T/C (dose: 0.5 mg/kg/injection, schedule: Q01DX011 (ip), vehicle: saline): 8 % of control
- T/C (dose: 0.7 mg/kg/injection, schedule: Q01DX011 (ip), vehicle: carboxymethylcellulose (CMC)): 7 % of control
- T/C (dose: 0.94 mg/kg/injection, schedule: Q01DX011 (ip), vehicle: carboxymethylcellulose (CMC)): 30 % of control
- T/C (dose: 1.0 mg/kg/injection, schedule: Q01DX011 (ip), vehicle: alkali diluted with saline): 1 % of control
- T/C (dose: 1.0 mg/kg/injection, schedule: Q01DX011 (ip), vehicle: carboxymethylcellulose (CMC)): 1 % of control and 2 % of control
- T/C (dose: 1.0 mg/kg/injection, schedule: Q01DX011 (ip), vehicle: distilled water + alcohol): 2 % of control
- T/C (dose: 1.0 mg/kg/injection, schedule: Q01DX011 (ip), vehicle: other): 3 % of control
- T/C (dose: 1.0 mg/kg/injection, schedule: Q01DX011 (ip), vehicle: saline): 2 % of control and 8 % of control
- T/C (dose: 1.4 mg/kg/injection, schedule: Q01DX011 (ip), vehicle: carboxymethylcellulose (CMC)): 5 % of control
- T/C (dose: 1.5 mg/kg/injection, schedule: Q01DX011 (ip), vehicle: methylcellulose (MC)): 4 % of control
- T/C (dose: 2.0 mg/kg/injection, schedule: Q01DX011 (ip), vehicle: alkali diluted with saline): 1 % of control
- T/C (dose: 2.0 mg/kg/injection, schedule: Q01DX011 (ip), vehicle: carboxymethylcellulose (CMC)): 1 % of control
- T/C (dose: 2.0 mg/kg/injection, schedule: Q01DX011 (ip), vehicle: other): 2 % of control
- T/C (dose: 2.0 mg/kg/injection, schedule: Q01DX011 (ip), vehicle: saline): 3 % of control and 7 % of control
- T/C (dose: 3.0 mg/kg/injection, schedule: Q01DX011 (ip), vehicle: methylcellulose (MC)): 3 % of control
- T/C (dose: 4.0 mg/kg/injection, schedule: Q01DX011 (ip), vehicle: carboxymethylcellulose (CMC)): 1 % of control
- T/C (dose: 4.0 mg/kg/injection, schedule: Q01DX011 (ip), vehicle: methylcellulose (MC)): 3 % of control
- T/C (dose: 4.0 mg/kg/injection, schedule: Q01DX011 (ip), vehicle: other): 1 % of control
- T/C (dose: 46.0 micrograms/kg/injection, schedule: Q01DX011 (ip), vehicle: carboxymethylcellulose (CMC)): 72 % of control
- T/C (dose: 49.0 micrograms/kg/injection, schedule: Q01DX011 (ip), vehicle: carboxymethylcellulose (CMC)): 118 % of control
- T/C (dose: 58.0 micrograms/kg/injection, schedule: Q01DX011 (ip), vehicle: carboxymethylcellulose (CMC)): 91 % of control
- T/C (dose: 62.0 micrograms/kg/injection, schedule: Q01DX011 (ip), vehicle: carboxymethylcellulose (CMC)): 77 % of control
- T/C (dose: 77.0 micrograms/kg/injection, schedule: Q01DX011 (ip), vehicle: carboxymethylcellulose (CMC)): 54 % of control
- T/C (dose: 82.0 micrograms/kg/injection, schedule: Q01DX011 (ip), vehicle: carboxymethylcellulose (CMC)): 69 % of control
- T/C (dose: 90.0 micrograms/kg/injection, schedule: Q01DX011 (ip), vehicle: methylcellulose (MC)): 32 % of control
- T/C (dose: 93.0 micrograms/kg/injection, schedule: Q01DX011 (ip), vehicle: carboxymethylcellulose (CMC)): 28 % of control
- T/C (dose: 116.0 micrograms/kg/injection, schedule: Q01DX011 (ip), vehicle: carboxymethylcellulose (CMC)): 12 % of control and 36 % of control
- T/C (dose: 140.0 micrograms/kg/injection, schedule: Q01DX011 (ip), vehicle: carboxymethylcellulose (CMC)): 11 % of control
- T/C (dose: 155.0 micrograms/kg/injection, schedule: Q01DX011 (ip), vehicle: carboxymethylcellulose (CMC)): 6 % of control
- T/C (dose: 175.0 micrograms/kg/injection, schedule: Q01DX011 (ip), vehicle: carboxymethylcellulose (CMC)): 4 % of control
- T/C (dose: 187.0 micrograms/kg/injection, schedule: Q01DX011 (ip), vehicle: methylcellulose (MC)): 11 % of control
- T/C (dose: 232.0 micrograms/kg/injection, schedule: Q01DX011 (ip), vehicle: carboxymethylcellulose (CMC)): 13 % of control
- T/C (dose: 233.0 micrograms/kg/injection, schedule: Q01DX011 (ip), vehicle: carboxymethylcellulose (CMC)): 2 % of control and 5 % of control
- T/C (dose: 350.0 micrograms/kg/injection, schedule: Q01DX011 (ip), vehicle: carboxymethylcellulose (CMC)): 3 % of control and 4 % of control
- T/C (dose: 375.0 micrograms/kg/injection, schedule: Q01DX011 (ip), vehicle: methylcellulose (MC)): 9 % of control
- T/C (dose: 490.0 micrograms/kg/injection, schedule: Q01DX011 (ip), vehicle: carboxymethylcellulose (CMC)): 5 % of control
- T/C (dose: 750.0 micrograms/kg/injection, schedule: Q01DX011 (ip), vehicle: methylcellulose (MC)): 4 % of control
- T/C (dose: 980.0 micrograms/kg/injection, schedule: Q01DX011 (ip), vehicle: carboxymethylcellulose (CMC)): 4 % of control
- T/C (dose: 1500.0 micrograms/kg/injection, schedule: Q01DX011 (ip), vehicle: methylcellulose (MC)): 3 % of control
- T/C (dose: 3000.0 micrograms/kg/injection, schedule: Q01DX011 (ip), vehicle: methylcellulose (MC)): 4 % of control

SMILES: CC(=O)OCC(=O)[C@@]1(O)CC[C@H]2[C@@H]3CCC4=CC(=O)[C@H](C)C[C@]4(C)[C@H]3[C@@H](O)C[C@@]21C
- T/C (dose: 6.2 mg/kg/injection, schedule: Q01DX011 (sc), vehicle: steriod suspending solution): 52 % of control
- T/C (dose: 12.5 mg/kg/injection, schedule: Q01DX011 (sc), vehicle: steriod suspending solution): 43 % of control
- T/C (dose: 25.0 mg/kg/injection, schedule: Q01DX011 (sc), vehicle: steriod suspending solution): 13 % of control and 38 % of control
- T/C (dose: 50.0 mg/kg/injection, schedule: Q01DX011 (sc), vehicle: steriod suspending solution): 32 % of control
- T/C (dose: 100.0 mg/kg/injection, schedule: Q01DX011 (sc), vehicle: steriod suspending solution): 15 % of control
- T/C (dose: 400.0 mg/kg/injection, schedule: Q01DX011 (sc), vehicle: steriod suspending solution): 4 % of control

SMILES: O=CC1CO1 (stereo not drawn)
- T/C (dose: 29.0 mg/kg/injection, schedule: Q01DX011 (ip), vehicle: saline): 71 % of control
- T/C (dose: 44.0 mg/kg/injection, schedule: Q01DX011 (ip), vehicle: saline): 41 % of control
- T/C (dose: 66.0 mg/kg/injection, schedule: Q01DX011 (ip), vehicle: saline): 66 % of control

SMILES: Cc1ccccc1-c1nc2c(N)nc(N)nc2nc1N
- T/C (dose: 50.5 mg/kg/injection, schedule: Q01DX011 (ip), vehicle: carboxymethylcellulose (CMC)): 83 % of control
- T/C (dose: 57.0 mg/kg/injection, schedule: Q01DX011 (ip), vehicle: methylcellulose (MC)): 54 % of control and 75 % of control
- T/C (dose: 101.0 mg/kg/injection, schedule: Q01DX011 (ip), vehicle: carboxymethylcellulose (CMC)): 75 % of control
- T/C (dose: 113.0 mg/kg/injection, schedule: Q01DX011 (ip), vehicle: methylcellulose (MC)): 48 % of control and 52 % of control
- T/C (dose: 202.0 mg/kg/injection, schedule: Q01DX011 (ip), vehicle: carboxymethylcellulose (CMC)): 68 % of control
- T/C (dose: 225.0 mg/kg/injection, schedule: Q01DX011 (ip), vehicle: methylcellulose (MC)): 82 % of control
